According to patent EP4722219A1 (Gan & Lee Pharmaceuticals Co., Ltd., priority 2023, dated 2024):
Positions count from the first letter of the chain named. pIC50: −log10 of the molar value. Like-named read-outs stand apart in the source and are kept apart here.

Assays:
CRBN protein = CRBN protein (Homo sapiens, UniProt Q96SW2); assay: Binding activity to E3 ubiquitin ligase CRBN (HTRF competitive binding kit, Thalidomide-Red); settings: competition with XL665-labeled thalidomide for GST-tagged CRBN protein, HTRF, 3 hours at room temperature
Source text: Binding activity of the E3 ligase inhibitor disclosed in the present invention to E3 ubiquitin ligase CRBN
CRBN binding activity test kit (CEREBLON BINDING KITS (PE, 64BD CRBN PEG).
The detection is based on homogeneous time-resolved fluorescence (HTRF) technology.
This kit uses a europium-labeled GST antibody (GST Eu Cryptate Antibody) as the donor and XL665-labeled thalidomide (Thalidomide-Red reagent) as the receptor. The donor binds to the GST-tagged CRBN protein.
The donor and receptor were each diluted 50-fold using the buffer provided in the kit (PROTAC binding buffer 1). The CRBN protein was diluted 45-fold. An 8mM solution of the compound disclosed herein was diluted 10-fold using the diluent provided in the kit (1X diluent), followed by 7 successive 5-fold serial dilutions of the resulting solution.
The ratio of the acceptor and donor emission signals was calculated for each individual well.
IC50 values was calculated based on compound concentration, Ratio, and coefficient of variation using GraphPad Prism.

LNCaP cells = assay: Inhibition of LNCaP cell proliferation (WST-8); assay type: cell-based; settings: Homo sapiens, LNCaP FGC cells, 96 hours
Procedure: The inhibitory activity of compounds disclosed in the present invention on LNCaP cell proliferation
The cells were cultured overnight in a 37°C, 5% CO2 cell incubator. […] The final concentration of the compound was 9 concentration points of 5-fold serial dilution starting from 10 µM. […] The cells were cultured in a cell culture incubator at 37°C and 5% CO2 for 96 hours. On the sixth day, the 96-well cell culture plate was removed, and 1/10 volume of WST-8 (Beytime, C0040) reagent was added to each well. The absorbance at 450 nm was detected using a microplate reader (TECAN, F50).

AR protein [1] = target: T1, AR protein (Homo sapiens, UniProt P10275); assay: AR protein degradation in VCaP cells (Western blot); assay type: cell-based; settings: 8h
T1 construct: host or cells: VCaP
T1 sequence (P10275 1-920): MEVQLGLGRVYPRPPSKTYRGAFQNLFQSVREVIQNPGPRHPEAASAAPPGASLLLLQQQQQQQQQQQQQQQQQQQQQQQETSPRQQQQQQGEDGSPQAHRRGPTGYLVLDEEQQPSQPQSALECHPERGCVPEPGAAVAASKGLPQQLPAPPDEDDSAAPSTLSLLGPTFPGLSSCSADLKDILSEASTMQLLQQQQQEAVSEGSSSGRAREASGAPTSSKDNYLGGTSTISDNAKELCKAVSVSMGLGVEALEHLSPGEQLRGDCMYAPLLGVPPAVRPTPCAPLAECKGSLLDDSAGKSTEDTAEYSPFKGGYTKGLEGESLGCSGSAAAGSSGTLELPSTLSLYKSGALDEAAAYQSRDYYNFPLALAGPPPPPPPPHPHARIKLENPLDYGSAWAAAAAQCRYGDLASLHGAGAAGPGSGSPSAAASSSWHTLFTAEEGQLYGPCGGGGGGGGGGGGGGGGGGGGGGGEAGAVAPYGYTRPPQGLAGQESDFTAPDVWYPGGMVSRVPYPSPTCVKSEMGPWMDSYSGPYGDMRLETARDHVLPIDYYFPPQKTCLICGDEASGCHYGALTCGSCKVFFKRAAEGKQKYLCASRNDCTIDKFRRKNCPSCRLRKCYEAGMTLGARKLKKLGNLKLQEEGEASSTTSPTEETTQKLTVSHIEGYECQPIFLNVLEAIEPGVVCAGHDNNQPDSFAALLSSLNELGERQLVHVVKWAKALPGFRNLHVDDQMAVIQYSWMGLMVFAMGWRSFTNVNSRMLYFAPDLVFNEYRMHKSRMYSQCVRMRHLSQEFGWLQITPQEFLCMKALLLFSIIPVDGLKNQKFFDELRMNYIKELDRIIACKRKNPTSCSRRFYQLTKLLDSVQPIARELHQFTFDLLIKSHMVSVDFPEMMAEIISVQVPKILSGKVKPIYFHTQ
Procedure: The degradation activity of the compounds disclosed in the present invention on AR protein in VCaP cells (cell source: ATCC)
The AR-positive human prostate cancer cells VCaP cultured in DMEM (GiBco catalog number 11995-065) containing 10% FBS (Hyclone catalog number SH30406.05) was inoculated in a six-well microplate (Thermo catalog number 140675) at a concentration of 3×10^5 cells/ well. After being cultured overnight in a carbon dioxide incubator (ESCO), the prepared compound of the present invention and the positive control sample ARV-766 (Annaiji) solution of different concentrations were added at a volume of 1 µL/well to make the final concentrations of the compound and the positive control sample reach 5nM and 0.5nM, respectively. At the same time, the corresponding solvent control was set and cultured for 8h. After 8h of culture, the culture medium was removed, and the cells were washed with PBS. RIPA lysis buffer containing 1% Protease Inhibitor Cocktail was added. After lysis and centrifugation, a total protein extract was obtained, and the protein concentration in the extract was detected by BCA method. Protein electrophoresis was performed using SDS-PAGE, and then the protein was transferred to a PVDF (Millipore Sigma catalog number PSRP010R5) membrane at a constant voltage of 100V for 60min. The PVDF membrane was placed in a 5% milk powder 1×TBST solution and blocked at room temperature for 1h. The primary antibody solution (Anti-Androgen receptor, Cell Signaling Technology catalog number: 5153S; 1:2000 dilution) was prepared and was incubated at 4°C overnight. The primary antibody solution was discarded and the PVDF membrane was washed with 1×TBST for 5 minutes each time, for three times. The secondary antibody solution (Thermo catalog number SA5-35571; 1:7500 dilution) was prepared and was incubated at room temperature for 1 hour. The secondary antibody solution was discarded and the PVDF membrane was washed with 1×TBST for 5 minutes each time, for three times. A dual-color infrared laser imaging system (Licor catalog number Odyssey CLX) was used for Western membrane imaging. Image Studio software was used to analyze the grayscale of the bands. GAPDH protein bands were also detected for each sample as the reference. The AR protein degradation rate of the compound and the positive control sample was calculated based on the grayscale of the protein bands.
Table 7 Degradation rate of AR protein in VCaP cells by the compounds disclosed in the present invention

VCaP cells = assay: Inhibition of VCaP cell proliferation (WST-8); assay type: cell-based; settings: Homo sapiens, 168 hours
Procedure: On the first day of the experiment, VCaP cells were seeded at a density of 15,000 cells/well in a 96-well plate using DMEM medium containing 10% fetal bovine serum, with 100µL of cell suspension per well, and cultured overnight in a cell incubator at 37°C and 5% CO2. On the second day, 100µL of the compound of the present invention and the positive control ARV-110 (source: Anaiji) prepared in culture medium at different concentrations were added to each well. The final concentration of the compound was 9 concentration points of 5-fold serial dilution starting from 10 µM. […] On the ninth day, the 96-well cell culture plate was removed and 1/10 volume of WST-8 (Beytime, C0040) reagent was added to each well. The absorbance at 450nm was measured using a microplate reader (TECAN, F50).

AR protein [2] = target: T2, AR protein (Homo sapiens, UniProt P10275, T878A); assay: AR protein degradation in LNCaP cells (Western blot); assay type: cell-based; settings: 8 hours
T2 construct: host or cells: LNCaP FGC
T2 sequence (P10275 1-920 T878A): T1 sequence (P10275 1-920) with T878A
Procedure, shortened: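 AR degradation rate derived from Western blot band densitometry, referenced to GAPDH, using total lysates of LNCaP cells treated 8 h with compound versus solvent control. Detection used infrared dual-color imaging after SDS-PAGE and PVDF transfer.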

Compound	pIC50 (CRBN protein; read-out: IC50)	IC50 (LNCaP cells)	IC50 (VCaP cells)	also measured
CN(c1ccc2c(c1)OCC21CCNCC1)C1CCC(=O)NC1=O (centres unmarked) [Compound C15, 3-(Methyl(2H-spiro[benzofuran-3,4'-piperidine]-6-yl)amino)piperidine-2,6-dione]	6.14			
O=C1CCC(Nc2ccc3c(c2)CC2(CCNCC2)O3)C(=O)N1 (centres unmarked) [Compound C8, 3-((3H-spiro[benzofuran-2,4'-piperidine]-5-yl)amino)piperidine-2,6-dione]	4.78			
CN(c1ccc2c(c1)COC[C@H]1CNCCN21)C1CCC(=O)NC1=O (some centres unmarked) [Compound C14]	5.73			
O=C1CC[C@H](NC(=O)c2ccc3c(c2)OC[C@H]2CNCCN32)C(=O)N1 [Compound B2]	4.22			
O=C1CCC(Nc2ccc3c(c2)OCC[C@H]2CNCCN32)C(=O)N1 (some centres unmarked) [Compound C12]	5.26			
O=C1CCC(Nc2ccc3c(c2)C2(CCNCC2)CO3)C(=O)N1 (centres unmarked) [Compound C2, 3-((2H-spiro[benzofuran-3,4'-piperidine]-5-yl)amino)piperidine-2,6-dione]	4.04			
COc1cc2c(cc1C(=O)N[C@H]1CCC(=O)NC1=O)CCC1(CCNCC1)O2 [Compound A11, (S)-N-(2,6-dioxyhesperidin-3-yl)-7-methoxyspiro[chroman-2,4'-piperidine]-6-carboxamide]				pIC50 (CRBN protein): 4.84
COc1cc(O[C@H]2C(C)(C)[C@H](NC(=O)c3ccc(N4CCC(CN5CCN6c7ccc(C(=O)N[C@H]8CCC(=O)NC8=O)cc7OC[C@H]6C5)CC4)cc3)C2(C)C)ccc1C#N [A-P-74, (R)-3-((1-(4-(((1R,3R)-3-(4-cyano-3-methoxyphenoxy)-2,2,4,4-tetramethylcyclobutyl)carbamoyl)phenyl)piperidin-4-yl)methyl)-N-((S)-2,6-dioxopiperidin-3-yl)-1,2,3,4,4a,5-hexahydrobenzo[b]pyrazi no[1,2-d][1,4]oxazine-8-carboxamide]		0.5 µM	2.16 µM	Degradation rate of AR protein in VCaP cells (AR protein [1]; 0.5 nM): 2%; Degradation rate of AR protein in VCaP cells (AR protein [1]; 5 nM): 70%
CC1(CN2CCC3(CCc4cc(C(=O)N[C@H]5CCC(=O)NC5=O)c(F)cc4O3)CC2)CCN(c2ccc(C(=O)N[C@H]3C(C)(C)[C@H](Oc4ccc(C#N)c(Cl)c4)C3(C)C)cc2)CC1 [A-P-55]		0.95 µM	1.05 µM	Degradation of AR protein in LNCaP cells, 10 nM (%) (AR protein [2]; 10 nM): -15%; Degradation of AR protein in LNCaP cells, 100 nM (%) (AR protein [2]; 100 nM): 15%
COc1cc(O[C@H]2C(C)(C)[C@H](NC(=O)c3ccc(N4CCC(CN5CCC6(CC5)COc5c6ccc(C(=O)N[C@H]6CCC(=O)NC6=O)c5OC)CC4)cc3)C2(C)C)ccc1C#N [A-P-78, 1'-((1-(4-(((1r,3r)-3-(4-cyano-3-methoxyphenoxy)-2,2,4,4-tetramethylcyclobutyl)carbamoyl)phenyl)piperidin-4-yl)methyl)-N-((S)-2,6-dioxopiperidin-3-yl)-7-methoxy-2H-spiro[benzofuran-3,4'-piperidine]-6-carboxamide]		50.7 µM	> 10 µM	Degradation of AR protein in LNCaP cells, 10 nM (%) (AR protein [2]; 10 nM): -2%; Degradation of AR protein in LNCaP cells, 100 nM (%) (AR protein [2]; 100 nM): 14%
COc1cc2c(cc1C(=O)N[C@H]1CCC(=O)NC1=O)C1(CCN(CC3CCN(c4ccc(N5CCC6(CC5)C[C@H](C)N(c5ccc(C#N)c(Cl)c5)C6)cc4)CC3)CC1)CO2 [A-P-81, 1'-((1-(4-((S)-2-(3-chloro-4-cyanophenyl)-3-methyl-2,8-diazaspiro[4.5]decan-8-yl)phenyl)piperidin-4-yl)methyl)-N-((S)-2,6-dioxopiperidin-3-yl)-6-methoxy-2H-spiro[benzofuran-3,4'-piperidin]-5-carboxamide]		14.5 µM	1.79 µM	percent AR protein degradation at a fixed concentration at 0.01 µM (AR protein [2]; 10 nM): -15%; percent AR protein degradation at a fixed concentration at 0.1 µM (AR protein [2]; 100 nM): 30%
